Laboratory results published in paper PMC10333884, “Large‐scale phosphomimetic screening identifies phospho‐modulated motif‐based protein interactions” (Molecular Systems Biology, 2023).
Non-standard residues stand in square brackets, D forms with d. Residues, ends and D or L forms follow the SMILES beside them. pT = C[C@@H](OP(=O)(O)O)[C@H](N)C(=O)O; pS = N[C@@H](COP(=O)(O)O)C(=O)O

What was measured:
Assay type in all cases: binding
PDCD6IP Alix V domain = biological target: T1, PDCD6IP Alix V domain (Homo sapiens, UniProt Q8WUM4); assay: FP displacement assay, PDCD6IP Alix V domain; details: probe FITC-HIV1_Gag 5 nM, 50 mM sodium phosphate pH 7.4, room temperature, at least three technical replicates, read-out: KD values ± SEM
T1 construct: GST (cleaved yes); made in house; host or cells: Escherichia coli BL21-Gold(DE3)
T1 sequence (Q8WUM4 360-702): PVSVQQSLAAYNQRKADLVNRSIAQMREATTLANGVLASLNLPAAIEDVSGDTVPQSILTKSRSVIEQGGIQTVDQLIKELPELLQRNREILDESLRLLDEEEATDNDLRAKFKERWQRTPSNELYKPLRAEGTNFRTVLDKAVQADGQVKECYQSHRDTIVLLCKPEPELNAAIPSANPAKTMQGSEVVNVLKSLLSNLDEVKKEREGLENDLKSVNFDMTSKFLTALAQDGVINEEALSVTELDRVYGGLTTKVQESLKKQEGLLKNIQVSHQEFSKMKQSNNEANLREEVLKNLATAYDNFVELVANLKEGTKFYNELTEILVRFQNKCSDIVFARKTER
Method: (§1) FP experiments were performed as described previously (Kliche et al, [2021]). Shortly, in order to monitor the binding event, FITC‐labelled peptides were used (excitation 495 nm, emission: 535 nm) and the FP signal was recorded in mP on a SpectraMax iD5 Multi‐Mode Microplate Reader (Molecular Devices) by measuring the emitted light in two angels. The measurements were performed at room temperature and prepared in nonbinding black half area 96‐well microplates (Corning®; 50 μl/well). For measuring direct binding, that is saturation curves, a 1:1 dilution series of protein domain (25 μl/well) was generated in 50 mM sodium phosphate buffer pH 7.4 and the measurement performed with 5 nM FITC‐labelled peptide (25 μl/well). The buffer‐corrected values were subsequently plotted with PRISM and fitted to the quadratic equation (Gianni et al, [2005]).
(§2) The 1:1 dilution series in this experiment was performed with the unlabelled peptide in 50 mM sodium phosphate buffer pH 7.4, so that each well‐contained unlabelled peptide (25 μl) at a certain concentration and pre‐formed complex (25 μl). The KD values of this indirectly monitored binding event were calculated as described previously (Nikolovska‐Coleska et al, [2004]). All measurements were at least in technical triplicates as well as biological duplicates when indicated. An amplitude shift between repeat measurements in the displacement experiments was occasionally observed due to variations in the protein preparations. If that was the case, the “active” protein concentration was back‐calculated according to the quadratic equation from the saturation curves performed in parallel. By comparing the active protein concentrations in the complex between different protein preparations, the amplitude was normalised.

GGA1 VHS [1] = biological target: T2, GGA1 VHS (Homo sapiens, UniProt Q9UJY5); assay: FP displacement assay, GGA1 VHS
T2 construct: GGA1_VHS__Q9UJY5_1_157; GST (cleaved yes); made in house; host or cells: Escherichia coli BL21-Gold(DE3)
T2 sequence (Q9UJY5 1-157): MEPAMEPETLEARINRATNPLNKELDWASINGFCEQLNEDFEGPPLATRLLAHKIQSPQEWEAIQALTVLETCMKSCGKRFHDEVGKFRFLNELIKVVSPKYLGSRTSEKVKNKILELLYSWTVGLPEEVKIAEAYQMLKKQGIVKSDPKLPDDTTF
Method: as §1, §2

Clathrin NTD = biological target: T3, Clathrin NTD (Homo sapiens, UniProt Q00610); assay: FP displacement assay, clathrin NTD
T3 construct: GST (cleaved yes); made in house; host or cells: Escherichia coli BL21-Gold(DE3)
T3 sequence (Q00610 1-364): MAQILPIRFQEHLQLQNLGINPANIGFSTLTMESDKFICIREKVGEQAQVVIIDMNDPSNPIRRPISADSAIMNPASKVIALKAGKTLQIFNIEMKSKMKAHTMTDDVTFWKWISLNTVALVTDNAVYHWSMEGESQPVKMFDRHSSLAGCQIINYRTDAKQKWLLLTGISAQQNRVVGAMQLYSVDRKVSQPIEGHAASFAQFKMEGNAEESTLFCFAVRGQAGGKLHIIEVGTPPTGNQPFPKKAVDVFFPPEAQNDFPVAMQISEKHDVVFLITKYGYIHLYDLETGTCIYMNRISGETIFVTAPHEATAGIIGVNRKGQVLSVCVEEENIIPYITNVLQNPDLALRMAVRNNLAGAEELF
Method: as §1, §2

GGA1 VHS [2] = biological target: T2, GGA1 VHS; assay: ITC, GGA1 VHS; set-up: Ka: unit not given beside the values; details: for Kd: ITC (iTC200), 50 mM sodium phosphate pH 7.4, 1 mM DTT, average of the runs, technical duplicates
[3] = FP displacement, probe FITC-IGF2R 5 nM, 50 mM sodium phosphate pH 7.4, room temperature, at least three technical replicates, read-out: KD values ± SEM
[4] = ITC single run: date 200220, injection 1
[5] = ITC single run: date 200220, injection 2

Structure (SMILES): CC[C@H](C)[C@H](NC(=O)[C@H](CCCCN)NC(=O)[C@H](CC(C)C)NC(=O)[C@@H]1CCCN1C(=O)[C@H](COP(=O)(O)O)NC(=O)[C@@H](NC(=O)[C@H](CCC(N)=O)NC(=O)[C@@H]1CCCN1C(=O)[C@H](Cc1ccc(O)cc1)NC(=O)[C@H](CC(C)C)NC(=O)[C@@H]1CCCN1C(=O)[C@H](CCCNC(=N)N)NC(=O)[C@H](CC(C)C)NC(=O)[C@@H]1CCCN1C(=O)[C@H](CO)NC(=O)[C@H](C)NC(C)=O)[C@@H](C)CC)C(N)=O [FOXK1_212–227 pS] (Ac-ASPLRPLYPQI[pS]PLKI-NH2)
- Kd (PDCD6IP Alix V domain): 13 ± 2 µM

Structure (SMILES): CC[C@H](C)[C@H](NC(=O)[C@H](CCCCN)NC(=O)[C@H](CC(C)C)NC(=O)[C@@H]1CCCN1C(=O)[C@H](CO)NC(=O)[C@@H](NC(=O)[C@H](CCC(N)=O)NC(=O)[C@@H]1CCCN1C(=O)[C@H](Cc1ccc(O)cc1)NC(=O)[C@H](CC(C)C)NC(=O)[C@@H]1CCCN1C(=O)[C@H](CCCNC(=N)N)NC(=O)[C@H](CC(C)C)NC(=O)[C@@H]1CCCN1C(=O)[C@H](CO)NC(=O)[C@H](C)NC(C)=O)[C@@H](C)CC)C(N)=O [FOXK1_212–227 wt] (Ac-ASPLRPLYPQISPLKI-NH2)
- Kd (PDCD6IP Alix V domain): 25 ± 3 µM

Structure (SMILES): CC(=O)N[C@@H](CCC(=O)O)C(=O)N[C@H](C(=O)N[C@@H](Cc1ccc(O)cc1)C(=O)N[C@@H](Cc1ccc(O)cc1)C(=O)N[C@@H](CC(C)C)C(=O)N[C@@H](CO)C(=O)N[C@@H](CC(=O)O)C(=O)N[C@@H](CO)C(=O)N1CCC[C@H]1C(=O)N[C@@H](CC(C)C)C(=O)N[C@@H](CC(C)C)C(=O)NCC(=O)N1CCC[C@H]1C(=O)N1CCC[C@H]1C(=O)N[C@H](C(=O)NCC(N)=O)C(C)C)[C@@H](C)O [GTSE1_145–160 wt] (Ac-ETYYLSDSPLLGPPVG-NH2)
- Kd (GGA1 VHS [1]; [3]): 96 ± 8 µM

Structure (SMILES): CC[C@H](C)[C@H](NC(=O)[C@H](CC(C)C)NC(=O)[C@H](CCC(N)=O)NC(=O)CNC(=O)[C@H](Cc1ccc(O)cc1)NC(C)=O)C(=O)N[C@@H](CC(=O)O)C(=O)N[C@@H](CC(C)C)C(=O)N[C@@H](CO)C(=O)N[C@@H](CO)C(=O)N1CCC[C@H]1C(=O)N[C@@H](CC(C)C)C(=O)N[C@H](C(=O)N[C@@H](CCC(N)=O)C(=O)N[C@@H](CC(C)C)C(=O)N[C@@H](CO)C(=O)N1CCC[C@H]1C(=O)N[C@@H](CCC(=O)O)C(N)=O)[C@@H](C)CC [GTSE1_692–707] (Ac-YGQLIDLSSPLIQLSPE-NH2)
- Kd (Clathrin NTD): ~100 µM

Structure (SMILES): CC[C@H](C)[C@H](NC(=O)[C@H](CC(C)C)NC(=O)[C@H](CC(N)=O)NC(=O)CNC(=O)CNC(=O)[C@H](Cc1ccc(O)cc1)NC(C)=O)C(=O)N[C@H](C(=O)N[C@@H](Cc1ccccc1)C(=O)N[C@@H](COP(=O)(O)O)C(=O)N1CCC[C@H]1C(=O)N[C@@H](CC(C)C)C(=O)N[C@@H](CCC(N)=O)C(=O)N1CCC[C@H]1C(=O)NCC(=O)N[C@@H](CCC(=O)O)C(=O)N[C@@H](Cc1ccccc1)C(=O)O)[C@@H](C)O [HURP832–846 pS Cterm] (Ac-YGGNLITF[pS]PLQPGEF-OH)
- Kd (Clathrin NTD): < 3 µM
- IC50 (Clathrin NTD; Fig 6A, clathrin NTD, FP displacement, two to three technical replicates per protein preparation, 2 independent preparations, read-out: IC50 values of displacement curves, with SEM): 11 ± 4 µM

Structure (SMILES): CC(=O)N[C@@H](CC(=O)O)C(=O)N[C@@H](CC(C)C)C(=O)N[C@@H](CC(C)C)C(=O)N[C@H](C(=O)N[C@@H](CO)C(=O)N1CCC[C@H]1C(=O)N[C@@H](CC(=O)O)C(=O)N[C@H](C(=O)NCC(=O)N[C@@H](CC(C)C)C(=O)N[C@@H](CC(C)C)C(=O)N[C@@H](CCCCN)C(=O)N[C@@H](CC(C)C)C(=O)N[C@@H](C)C(=O)N[C@@H](CO)C(=O)N[C@@H](Cc1ccc(O)cc1)C(N)=O)C(C)C)[C@@H](C)OP(=O)(O)O [JUN59–73 pS] (Ac-DLL[pT]SPDVGLLKLASY-NH2)
- Kd (GGA1 VHS [1]): 1900 µM

Structure (SMILES): CC(=O)N[C@@H](CC(=O)O)C(=O)N[C@@H](CC(C)C)C(=O)N[C@@H](CC(C)C)C(=O)N[C@H](C(=O)N[C@@H](CO)C(=O)N1CCC[C@H]1C(=O)N[C@@H](CC(=O)O)C(=O)N[C@H](C(=O)NCC(=O)N[C@@H](CC(C)C)C(=O)N[C@@H](CC(C)C)C(=O)N[C@@H](CCCCN)C(=O)N[C@@H](CC(C)C)C(=O)N[C@@H](C)C(=O)N[C@@H](CO)C(=O)N[C@@H](Cc1ccc(O)cc1)C(N)=O)C(C)C)[C@@H](C)O [JUN59–73 wt] (Ac-DLLTSPDVGLLKLASY-NH2)
- Kd (GGA1 VHS [1]): 470 ± 50 µM

Structure (SMILES): CC(=O)N[C@H](C(=O)N[C@@H](COP(=O)(O)O)C(=O)N1CCC[C@H]1C(=O)N[C@@H](CC(C)C)C(=O)N[C@H](C(=O)N[C@@H](CO)C(=O)N[C@@H](CC(C)C)C(=O)N[C@@H](Cc1ccc(O)cc1)C(=O)N1CCC[C@H]1C(=O)N[C@@H](C)C(=O)N[C@@H](CC(C)C)C(=O)N[C@@H](CCC(=O)O)C(=O)N[C@@H](C)C(=O)N[C@@H](CCCNC(=N)N)C(=O)N[C@@H](C)C(=O)N[C@@H](CC(C)C)C(N)=O)C(C)C)[C@@H](C)O [OTUD5_507–522 pS] (Ac-T[pS]PLVSLYPALEARAL-NH2)
- Kd (PDCD6IP Alix V domain): 116 ± 20 µM

Structure (SMILES): CC(=O)N[C@H](C(=O)N[C@@H](CO)C(=O)N1CCC[C@H]1C(=O)N[C@@H](CC(C)C)C(=O)N[C@H](C(=O)N[C@@H](CO)C(=O)N[C@@H](CC(C)C)C(=O)N[C@@H](Cc1ccc(O)cc1)C(=O)N1CCC[C@H]1C(=O)N[C@@H](C)C(=O)N[C@@H](CC(C)C)C(=O)N[C@@H](CCC(=O)O)C(=O)N[C@@H](C)C(=O)N[C@@H](CCCNC(=N)N)C(=O)N[C@@H](C)C(=O)N[C@@H](CC(C)C)C(N)=O)C(C)C)[C@@H](C)O [OTUD5_507–522 wt] (Ac-TSPLVSLYPALEARAL-NH2)
- Kd (PDCD6IP Alix V domain): 68 ± 6 µM

Structure (SMILES): CC[C@H](C)[C@H](NC(=O)[C@H](CC(=O)O)NC(=O)[C@H](CC(=O)O)NC(=O)[C@H](CO)NC(=O)[C@@H](NC(=O)[C@@H]1CCCN1C(=O)[C@H](CO)NC(=O)[C@H](CCCCN)NC(=O)[C@H](Cc1ccc(O)cc1)NC(C)=O)[C@@H](C)O)C(=O)N[C@@H](COP(=O)(O)O)C(=O)N[C@@H](CC(C)C)C(=O)N[C@@H](CC(C)C)C(=O)N[C@@H](Cc1c[nH]cn1)C(=O)N[C@@H](CCC(=O)O)C(=O)N[C@@H](CO)C(=O)N[C@@H](CCC(N)=O)C(=O)N[C@@H](CO)C(N)=O [RNF11_6–21 pS] (Ac-YKSPTSDDI[pS]LLHESQS-NH2)
- Kd (GGA1 VHS [2]): 27 µM
- Ka (GGA1 VHS [2]; [4]): 35100
- Ka (GGA1 VHS [2]; [5]): 38900
- Kd (GGA1 VHS [1]; [3]): 31 ± 3 µM

Structure (SMILES): CC[C@H](C)[C@H](NC(=O)[C@H](CC(=O)O)NC(=O)[C@H](CC(=O)O)NC(=O)[C@H](CO)NC(=O)[C@@H](NC(=O)[C@@H]1CCCN1C(=O)[C@H](CO)NC(=O)[C@H](CCCCN)NC(=O)[C@H](Cc1ccc(O)cc1)NC(C)=O)[C@@H](C)O)C(=O)N[C@@H](CO)C(=O)N[C@@H](CC(C)C)C(=O)N[C@@H](CC(C)C)C(=O)N[C@@H](Cc1c[nH]cn1)C(=O)N[C@@H](CCC(=O)O)C(=O)N[C@@H](CO)C(=O)N[C@@H](CCC(N)=O)C(=O)N[C@@H](CO)C(N)=O [RNF11_6–21 wt] (Ac-YKSPTSDDISLLHESQS-NH2)
- Kd (GGA1 VHS [2]): 919 µM
- Ka (GGA1 VHS [2]; [4]): 2030
- Ka (GGA1 VHS [2]; [5]): 744
- Kd (GGA1 VHS [1]; [3]): 420 ± 50 µM
